Experimental data taken from patent publication US6281250A, “Retinyl ethers, derivatives and analogues and inhibition of breast carcinogenesis” (Southern Research Institute, priority 1999, dated 2001).
Entries after “also recorded” stand apart in the source; their conditions may differ. Read-outs that look alike come from different tables or passages of the source.

Columns and labels:
[1] = tested on: NADPH-requiring enzymes in rat liver microsomes; assay: Conversion of retinyl ethers to retinol by rat liver microsomal enzymes; type: in vitro ADME; details: in vitro
Method: Because it was postulated, as stated above, that new retinyl ethers might not be converted by mircrosomal oxidases to retinol, RTMBE and 3a-i were tested in vitro in the same way.

[2] = tested on: MNU-induced mammary cancer; details: for Adenocarcinomas, % of Control Group A / Adenocarcinomas, Avg. No. Per Rat / reduction of average number of tumors per rat: 160 days
Method: Briefly, diets were prepared by mixing each retinoid with Wayne meal or Teklad (4%) mash diet. For each kg of diet, the retinoid was dissolved in 12 g ethanol, 19 g trioctanoin, 0.05 mL Tenox 20, and 0.05 mL d,1-alpha tocopherol prior to incorporation into the feed using a Patterson-Kelly blender. Retinoid diet mixtures were stored at 4° C. Portions of each retinoid-diet mixture were analyzed for the added retinoid to ensure homogeneity. Female Sprague-Dawley rats received an i.v. injection of MNU (45 mg/kg body weight) at 50 days of age. Diet supplementation with retinoids was initiated three days after MNU. A group of rats receiving retinyl acetate (1 mmol/kg of diet) served as the positive control. The animals were palpated for mammary tumors 2×/week. At termination of the study, mammary tumors were processed for histological classification. Also, five rats/group had complete necropsies performed. The tissues were examined histologically for pathological lesions as additional toxicological evaluation. Extracts of the liver and mammary gland (5 rats/group) were analyzed by HPLC for retinyl palmitate and/or for the dosed retinoid. Statistical analyses of cancer incidence and latency were determined using logrank analysis, while differences in cancer multiplicity were determined employing the Armitage test.
In this assay, described previously (Grubbs et al., 1995; Shealy el al., 1997), a retinoid dissolved in a solution (vehicle) consisting of ethanol and trioctanoin plus small amounts of Tenox 20 and α-tocopherol was mixed with feed, and the mixture was fed to rats after intravenous injection of MNU.
^a Female Sprague-Dawley rats (10/group) received one i.v. injection of
MNU (45 mg/kg of body weight) at 50 days of age. Diet supplementation with
retinoids was initiated at 52 days of age and was continued until the
study was terminated 160 days after administration of MNU.
^b Treatment with retinoids is stated in millimoles of retinoid per
kilogram of diet (Wayne meal).

[3] = target: T1, cellular retinol-binding protein (CRBP) (Rattus norvegicus, UniProt P02696); assay: Binding to cellular retinol-binding protein (CRBP): inhibition of [3H]retinol binding, sucrose density-gradient sedimentation
T1 construct: portions of rat testes cytosol (1 mg protein) were incubated; from tissue; host or cells: rat testes cytosol
T1 sequence (P02696 1-135): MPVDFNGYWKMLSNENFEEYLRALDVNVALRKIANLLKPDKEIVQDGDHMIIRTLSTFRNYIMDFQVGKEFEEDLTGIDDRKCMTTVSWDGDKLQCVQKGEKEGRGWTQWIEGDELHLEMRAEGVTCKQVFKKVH
Method: Binding affinities of the retinyl ethers for CRBP were determined by sucrose, density-gradient, sedimentation analysis as described before (Sani et al., 1980). Briefly, portions of rat testes cytosol (1 mg protein) were incubated with [^3 H]retinol (50 pmol) in the presence or absence of a 150-fold molar excess of unlabeled retinol or the test retinoids. The preparations after dialysis were analyzed by 5-20% sucrose density gradient sedimentation. For measuring the competitive binding of the unlabeled retinoids, inhibition of [^3 H]retinol binding to CRBP by unlabeled retinol is regarded as 100%. The mean and standard deviation calculated from the relative inhibitions obtained from multiple determinations were used as the relative binding affinities of the various retinyl ethers.
The group of retinyl benzyl ethers has now been evaluated for binding to CRBP. Binding to CRBP, as defined for Table I, at approximately 60% or higher was rated as strong; at 40-60%, as moderate; at 20-40%, as low.
^a Per cent inhibition of binding of tritiated retinol to CRBP by a
150-fold molar excess of the unlabelled test retinoid (Sani et al., 1980,

[4] = Toxicity observations in rats receiving retinoids in feed; type: in vivo, rat (Sprague-Dawley); details: administered in feed, listed as RTMBE
Method: Retinoid diet mixtures were stored at 4° C. […] The animals were palpated for mammary tumors 2×/week. […] Also, five rats/group had complete necropsies performed.

[5] = in vivo
Method: Toxicological evaluations involving measurement of body weights and observations of clinical signs characteristic of retinoid toxicity were accomplished as previously described (Lin et al., 1996).
RTMBE and two of its analogues, together with RME and RPE, were selected for estimation of their toxicities to mice when administered during 28-29 days by gavage in corn oil (Table 8). Mice were evaluated for changes in body weight and for signs of clinical retinoid toxicity (hypervitaminosis A) including alopecia, scaly skin, and limping. In the first experiment, these retinyl ethers were given at equimicromolar doses at three dose levels. The retinyl benzyl ethers (RTMBE, 3c, and 3e) were then tested at higher doses in a second experiment.

[6] = tested on: MNU-induced mammary cancer; assay: 180-day study of RTMBE for suppression of MNU-induced mammary carcinogenesis (Expt. 3); type: in vivo, rat (female Sprague-Dawley); details: second, confirmatory experiment; 2 mmol/kg of diet, 180 days
[7] = Shealy et al., 1997; cited from earlier work
[8] = Analysis of feed samples for stability of retinyl ethers; type: physicochemical
Method: The 2,5-dimethoxybenzyl (3b) and 4-methoxybenzyl (3e) ethers were tested in the same way in a 90-day study. […] The 2,5-dimethybenzyl (3c) and the 2,3-dimethoxybenzyl (3h) ethers, together with RTMBE for comparison, were likewise assayed according to the same methodology. Prior to the beginning of this study, specimens of the retinoid-diet mixtures were placed under the conditions that were employed during the storage and feeding of RTMBE, 3c, and 3h. The specimens were extracted with butanol, and the extracts were analyzed by HPLC. […] Testing of 3c and 3h was discontinued, but the RTMBE study was continued until the duration of the study was 180 days (Table 6). The results were similar to those of Experiment 1 (Table 3). The averages of the number of tumors per rat were reduced by 32-35%; in addition, the averages of the tumor weights per rat was 56-70% lower than the average tumor burden of the control group.
^a The values in each column are % recoveries of the retinyl ether from
mixtures of the ether with feed samples and are based on the actual
amounts of the ether that were added.
^b The samples that were analyzed were mixtures of vehicle, retinoid,
and feed (prepared as described by Shealy et al., 1997).
^c Food cups were placed in animal cages within the room that housed
the rats; therefore, temperature (22° C.) and lighting were
identical to those in use during the in vivo tests.

[9] = tested on: TPA-induced ornithine decarboxylase (ODC); assay: Inhibition of TPA-induced ornithine decarboxylase (ODC) in mouse skin; type: in vivo
Text: Earlier, several alkyl, alkenyl, or alkynyl retinyl ethers had been assayed for inhibition of TPA-induced ornithine decarboxylase (ODC) in mouse skin and for the suppression of DMBA-initiated and TPA-promoted mouse-skin papillomas (Shealy et al., 1997). In comparison with control groups, these retinyl ethers were ineffective. Only a few representatives of the benzyl ethers were selected for tests in these assays. […] Because of these and the earlier results (Shealy et al., 1997), testing of retinyl benzyl ethers in the ODC and papilloma assays was discontinued.

COc1cc(COC/C=C(C)/C=C/C=C(C)/C=C/C2=C(C)CCCC2(C)C)cc(OC)c1OC [Compound 2, Retinyl 3,4,5-Trimethoxybenzyl Ether]
conversion to retinol [1]: not detectable
Adenocarcinomas, % of Control Group A ([2]; 0.5 mmol/kg diet): 100%
Adenocarcinomas, Avg. No. Per Rat ([2]; 0.5 mmol/kg diet): 6.5
Adenocarcinomas, % of Control Group A ([2]; 1 mmol/kg diet): 55%
Adenocarcinomas, Avg. No. Per Rat ([2]; 1 mmol/kg diet): 3.6
reduction of average number of tumors per rat ([2]; 1 mmol/kg feed): 46%
Adenocarcinomas, % of Control Group A ([2]; 2 mmol/kg diet): 54%
Adenocarcinomas, Avg. No. Per Rat ([2]; 2 mmol/kg diet): 3.5
reduction of average number of tumors per rat ([2]; 2 mmol/kg feed): 45%
prevention / suppression of mammary cancer, general statement ([2]; animal model / in vivo initial study): suppress mammary cancer in vivo
Binding to CRBP, rating ([3]; 150-fold molar excess): strong or moderate binding
binding to CRBP, in words ([3]; 150-fold molar excess): bind to CRBP
Percent Inhibition of [3H] Retinol Binding (CRBP Assay) ([3]; 150-fold molar excess of unlabelled test retinoid, rat testes cytosol): 66 ± 12%
toxicity in MNU-mammary cancer studies [4]: Overt toxicity was not evident; also recorded: not toxic in the mammary carcinogenesis studies
NOAEL ([5]; mouse, in vivo, po): 249 mg/kg/day
Toxic Dose ([5]; oral gavage in corn oil, 28-29 days): > 249 mg/kg day
clinical toxicity (alopecia, scaly skin, limping) ([5]; oral gavage, up to highest dose (RTMBE and RMoBE-4: Expt. 2)): No evidence of clinical toxicity
reduction of adenocarcinoma formation, compared with retinyl acetate [6]: somewhat more effectively than retinyl acetate
recovery from the feed of rats [7]: recoverable from the feed of rats
% recovery of retinyl ether from feed ([8]; After 1 week of 4° C., 10080 min): 101%
% recovery of retinyl ether from feed ([8]; After 1 day in food cup (22° C.)): 97%
% recovery of retinyl ether from feed ([8]; After 2 days in food cup (22° C.)): 104%
% recovery of retinyl ether from feed ([8]; After 3 days in food cup (22° C.)): 97.5%
% recovery of retinyl ether from feed ([8]; Immediately After Mixing): 99.8%
% recovery of retinyl ether ([8]; Vehicle + Retinoid (only)): 97%
stability in diet mixtures ([8]; conditions of storage and feeding in animal rooms): essentially unchanged
activity in ODC assay [9]: not active in the ODC assay
